According to patent publication US12263153B2, “Pharmaceutical composition, methods for treating and uses thereof” (Boehringer Ingelheim International GmbH, priority 2016, dated 2025):

How the values were obtained:
[1] = human, in vivo; cited from earlier work
[2] = blood pressure, heart rate and sympathetic activation under empagliflozin treatment; format: in vivo; conditions: treatment with empagliflozin
Description: It may be assumed that altered glucose and sodium gradients within the kidney may generate a sympathoinhibitory afferent renal nerve signal. The lack of sympathetic activation may contribute to a beneficial cardiovascular and renal profile of empagliflozin (cardiorenal axis). Based on clinical and non-clinical studies including mechanistic considerations, such as the effect of empagliflozin on human autonomic cardiovascular regulation, the use of empagliflozin in the treatment, prevention or slowing the progression of certain diseases and conditions or reducing the risk thereof, in particular chronic kidney disease and cardiovascular death in certain patients, is described hereinbefore and hereinafter.

[3] = patients with type 2 diabetes mellitus and high cardiovascular risk; cited from earlier work

Compound: OC[C@H]1O[C@@H](c2ccc(Cl)c(Cc3ccc(O[C@H]4CCOC4)cc3)c2)[C@H](O)[C@@H](O)[C@@H]1O [empagliflozin, 1-chloro-4-(β-D-glucopyranos-1-yl)-2-[4-((S)-tetrahydrofuran-3-yloxy)-benzyl]-benzene]
- arterial stiffness [1]: reduced arterial stiffness
- direct vascular effects [1]: direct vascular effects
- diuretic effect [1]: shows a diuretic effect
- heart rate [2]: without clinically relevant changes
- risk of cardiovascular death [3]: reduced the risk
- risk of overall mortality [3]: reduced the risk
